The values that follow come from patent publication EP0692191A1, “UTILIZATION OF PHENYL COMPOUNDS FOR THE CONTROL OF PHYTOPARASITE NEMATODES” (UNIVERSIDAD DE LA LAGUNA, priority 1993, dated 1995).

The structures appear in SMILES notation. “And” between values parts separate entries of the source, which are not always exact repeats. Identical values can stand only once. Like-named read-outs stand apart in the source and are kept apart here. Marks after values point to notes of the source that are not given here.

Data set [1] deals with Globodera rostochinesis und Globodera pallida. In words: Nematicidal effect: lethal concentrations on second-stage juveniles, 24 h (Example 1). Conditions: for LC50: read-out: CL50; for EC100: read-out: CL100.
The next data set has as its system Mäusen. Conditions: mouse, in vivo; cited from earlier work.
For another data set, the system named is Ratte. Conditions: rat, cited from earlier work.
In data set [2] the test system is Tomate (Lycopersicum esculentum var. marglobe). Briefly: Phytotoxicity: germination and elongation of tomato seeds (5.1). Conditions: tomato, 0,05 and 0,5 mmol, statement in words.
Data set [3] relates to Kresse (Nasturtium officinale). In words: Phytotoxicity: germination and elongation of cress seeds (5.1). The conditions noted are these: for activity at 50 µM / activity at 500 µM: Nasturtium officinale, 168 h.
The next data set relates to M. javanica. Briefly: Infestation index of tomato roots (1.3). Type of data set: in vivo. Conditions: index 0 to 5; tomato plants in soil treated as in experiment 1.2; untreated soil ima=4,33. From the text: Man pflanzte Tomatenpflanzen in einer kommerziell erhältlichen Auswahl, anfällig für M. javanica, um die Pflanzen der Bananenpflanzung, die mit trans-1,3-Diphenyl-2-propen-1-on des Experimentes 1.2 behandelt wurde, wie auch um solche, die nicht behandelt wurden. Der Index des Befalles der Wurzeln der Tomate gab uns eine näherungsweise Vorstellung des Niveaus der Infektion mit Nematoden der Wurzelknoten im Feld (Bridge & Page, 1980. Tropical Pest Management, 26:296-298). Zur Klassifikation der angegriffe der Nematoden auf die Wurzeln der Tomate etablierte man einen Index des Befalles von 0 bis 5. Die Pflanzen, die in dem mit trans-1,3-Diphenyl-2-propen-1-on behandeltem Boden wuchsen, erhielten einen mittleren Befallindex (ima) der deutlich kleiner war (ima=3) als derjenige der Pflanzen, die im Boden ohne Behandlung (ima=4,33) wuchsen.

Data set [4] concerns Globodera rostochienensis und Globodera pallida. In words: Nematostatic effect: inhibition of hatching from cysts (Example 2). Type of data set: in vivo. The conditions noted are these: for activity at 10 µM: im, 360 h, 0,01 mmol, read-out: Bildung von Einschlußkörpern im Verhältnis zur Bekämpfung. From the text: Man realisierte ein Experiment, um den Effekt von trans-1,3-Diphenyl-2-propen-1-on bei der Bildung von Einschlußkörpern der Globodera spp. zu sehen. Man setzte 10 Zysten einer gemischten Population der Spezie Globodera rostochienensis und Globodera pallida in Violen mit 2cc einer Lösung, die 10 mmol ZnSO4 als Induktionsmittel der Bildung von Einschlußkörpern enthielt, und eine variable Konzentration von trans-1,3-Diphenyl-2-propen-1-on (0,05, 0,04, 0,03, 0,01 und 0,005 mmol). Die in den vier Replikatoren und in den Bekämpfungen entwickelten Jungen zählte man periodisch während 15 Tagen. Auf der Basis der Regressionskurve, die die Resultate des Experimentes besser beschreibt, schätzte man, was die Anwesenheit von nur 0,007 mmol von trans-1,3-Diphenyl-2-propen-1-on während 15 Tagen ausreichend war, um die Bildung von Einschlußkörpern auf die Hälfte derjenigen der Bekämpfung zu reduzieren.
Nachfolgend und mit dem Ziel zu sehen, ob die Hinderung der Bildung von Einschlußkörpern irreversibel sei, entfernt man die Zysten, wäscht man mit destilliertem Wasser und setzt sie in neue Violen mit 2cc einer Lösung, die lediglich das Induktionsmittel der Bildung von Einschlußkörpern (10 mmol ZnSO4) enthielt. Man fand heraus, das der Bildung von Einschlußkörpern hindernde Effekt des trans-1,3-Diphenyl-2-propen-1-on bei einer Dosis über 0,03 mmol unumkehrbar ist. Die bei der Dosis von 0,01 mmol auftretende Bildung von Einschlußkörpern war deutlich geringer als die der Bekämpfung (37,28%) in den ersten 15 Tagen und praktisch null ( es entwickelten sich lediglich 4,6% im Verhältnis zur Bekämpfung) nach der Herausnahme des trans-1,3-Diphenyl-2-propen-1-on bei 15 Tagen seit Beginn des Experimentes (Figur 3).

Data set [5] has as its system Vinca major, Adiantum capillus-veneris, Begonia rex, Hedera helix. In words: Phytotoxicity: development of laboratory plants (5.2). The data set is classed as in vivo. Conditions: 0,05 mmol with irrigation at field capacity, 50 days, 25°C, 80% relative humidity. How it is done: Die Phytotoxizität der trans-1,3-Diphenyl-2-propen-1-on studierte man im Laboratorium unter Benutzung von Vinca major Pflanzen (8 Pflanzen), Adiantum capillus-veneris (2 Pflanzen), Begonia rex (2 Pflanzen) und Hedera helix (2 Pflanzen), die man an Ort und Stelle zog und in einer Kammer bei 25°C, 80% relativer Luftfeuchtigkeit und 13 Stunden Licht pro Tag kultivierte. Die Hälfte der Pflanzen behandelte man mit einer Dosis von trans-1,3-Diphenyl-2-propen-1-on von 0,05 mmol, das man auf eine Bewässerung mit Feldkapazität anwendete.

The subject of a further data set is Meloidogyne javanica. In words: Field effect in a banana plantation greenhouse infested with nematodes (1.2). The conditions noted are these: 0,05 mmol solution, 3000 l with irrigation water; soil samples three days later. The data set is classed as in vivo. The text has this:
Man bereitete 3000 Liter einer Lösung von trans-1,3-Diphenyl-2-propen-1-on 0,05 mmol und verwendete diese am Boden mit dem Wasser der Bewässerung in einem Gewächshaus der Bananenanpflanzung, das von dem phytoparasitischen Nematoden Meloidogyne javanica befallen war. Drei Tage später nahm man Proben des Bodens der behandelten Parzelle und stellte fest, das in den Extraktionen von Nematoden mittels der Methode der Zentrifugation auf Zucker (Extraktion von sowohl lebenden und toten Nematoden) lediglich 25% lebende Larven der M. javanica zu finden waren, sodaß die Behandlung mit trans-1,3-Diphenyl-2-propen-1-on eine Näherungsweiseeffektivität von 75% hatte.

For data set [6] the following is noted: tomato, in vivo.
Data set [7] in a line: Brine shrimp assay (Example 4). The conditions noted are these: in vivo, Artemia salina, read-out: CL50. From the text: Die Analyse der Toxizität einer Substanz auf eine Salzgarnele Artemia salina (Brine shrimp) vermitteln eine angenäherte Vorstellung der biologischen Aktivität eines Produktes und insbesondere seiner Zytotoxizität.
Das Experiment wurde durchgeführt nach der Methode, die durch Mayer et al., 1982, beschrieben wurde ( Planta Med. 45:31-34), wobei das CL50 bei 24 Stunden für die Garnelen berechnet wird. Man benutzte vier Replikatoren, jeweils mit einer der Konzentrationen von trans-1,3-Diphenyl-2-propen-1-on (0,1, 0,01, 0,001 und 0,0001 mmol) und adäquate Bekämpfungen. Das geschätzte CL50 lag bei 0,0247 mmol, Dosen, die annäherungsweise mit denjenigen übereinstimmen, die für die Larven des zweiten Stadiums der Nematoden der Zyste berechnet wurden (CL50=0,033).

The subject of data set [8] is Musa spp. cv Cavendish ,,Gran enano". In words: Phytotoxicity: banana plants (5.2). Type of data set: in vivo. From the text:
Man studierte gleitherweise die Phytotoxizität von trans-1,3-Diphenyl-2-[…] auf Pflanzen der Bananenpflanzung (Musa spp. cv Cavendish ,Gran enano"). Bananenpflanzungen, die drei Monate alt waren und aus einer Kultivierung in vitro stammten, pflanzte man in Holzkübel von 5 l Kapazität mit einem Substrat von 1:1:1 (Torf:Sand:Kies) und ordnete diese zufällig in einem Gewächshaus an. Für dieses Experiment ordnete man 10 Replikatoren zur Behandlung und 5 zur Bekämpfung an. […]

A short description of data set [9]: Acute toxicity in male Albino-Swiss mouse, intraperitoneal (Example 3). Conditions: mouse, in vivo, ip, male Albino-Swiss mouse, intraperitoneal, 24 h, estimated from regression curve; read-out: DL50. Type of data set: in vivo, Albino-Swiss Maus. The text has this: (§1) Man studierte die Toxizität bei einer männlichen ,Albino-Swiss" Maus mittels der intraperitonealen (i.p.) Anwendung variabler Dosen von trans-1,3-Diphenyl-2-propen-1-on bei 10 […] zur Behandlung. Man wertete die Nummer der toten Tiere nach 24 Stunden der Anwendung und berechnete die Gleichung der Regressionskurve, die die Resultate des Experimentes besser beschreibt. Ausgehend von den Regressionsgleichungen schätzte man dieDL50 und DL0 (Dosen des trans-1,3-Diphenyl-2-propen-1-on ohne offensichtlichen Effekt) bei 24 Stunden. Ebenso schätzte man das Potential der Toxizität (pT) (Luckey und Venugopal, 1977. J. Toxicol. & Envirn. Health. 2:633.)
(§2) Das DL50 schätzte man bei 1494 mg/Kg bei 24 Stunden (Figur 4). Ausgehend von diesen Daten deduzierte man das das trans-1,3-Diphenyl-2-propen-1-on eine leicht toxische Substanz ist mit DL50 schwankend zwischen 0,5 und 5 g/kg (Loomis, 1982. Ed acribia. Zaragoza, 33-43). Der letale Effekt null für trans-1,3-Diphenyl-2-propen-1-on bei 24 Stunden war DL0=653,85 mg/kg.
(§3) Das toxische Potential schätzte man auf pT50=2,14.

A further data set relates to Albino-Swiss Maus. The data set is described as above. Type of data set: in vivo.
Source text: as §1, §2, §3

Setting [10] is: read-out: TE: Rate der Verlängerung.

With `O=C(Cc1ccccc1)Cc1ccccc1` [Verbindung 7, 1,3-Diphenylaceton], in [1], the LC50 is 961 µM and 202 µg/mL.

Consider `CN1CSC(=S)N(C)C1` [Dazomet], for which the DL50 in the data set with Mäusen is 180 mg/kg.

In the case of `CNC(=O)Oc1cccc2c1OC(C)(C)C2` [Carbofurano], the DL50 with Mäusen was 2 mg/kg.

In the case of `C=CSc1ccccc1` [Verbindung 2, Phenylvinylsulfid], the LC50 in [1] was 21 µM and 2.86 µg/mL.

Take `O=C1CCC(c2ccccc2)O1` (centres unmarked) [Verbindung 6, γ-Phenyl-γ-butirolacton]: in data set [1], the LC50 was 282 µM and 45.7 µg/mL; the EC100 is < 1000 µM and < 162 µg/mL.

With `CNC(=O)O/N=C/C(C)(C)SC` [Aldicarb], the DL50 with Mäusen is recorded as 0,3 mg/Kg.

`CCOP(=O)(NC(C)C)Oc1ccc(SC)c(C)c1` (centres unmarked) [Fenamifos]: the DL50 in the data set on Mäusen was 22,7 mg/Kg.

As for `CC(=O)/C=C/c1ccccc1` [Verbindung 5, trans-4-Phenyl-3-buten-2-on], in data set [1], the LC50 is 168 µM and 24.6 µg/mL; the EC100 is < 1000 µM and < 146 µg/mL. The LD50 with Ratte (intraperitoneal) is 1210 mg/kg. In addition, in the data set on Ratte (intravenous), the LD50 was 112 mg/kg.

On to `C=C[S+]([O-])c1ccccc1` (centres unmarked) [Verbindung 4, Phenylvinylsulfoxid], for which, in data set [1], the LC50 is 111 µM and 16.9 µg/mL; the EC100 was < 1000 µM and < 152 µg/mL.

Turning to `O=C/C=C/c1ccccc1` [Verbindung 3, trans-Zimtaldehyd], in data set [1], the LC50 was 24 µM and 3.17 µg/mL; the EC100 was < 1000 µM and < 132 µg/mL.

Take `O=C(/C=C/c1ccccc1)c1ccccc1` [Verbindung 8, trans-1,3-diphenyl-2-propen-1-on]: in data set [2], the “Rate der Keimung” value was “variierte bei der Tomate nicht” and the Verlängerungsrate result was “variierte bei der Tomate nicht signifikant”. Moreover, in [3] (setting [10]), the activity at 50 µM was 97.9% and the activity at 500 µM was found to be 18.4%. Also, in data set [3] (read-out: TG: Rate der Keimung), the activity at 50 µM is 78.4% and the activity at 500 µM was 86.5%. Moreover, the “TE: Rate der Verlängerung” value in data set [3] (cress primary root, 0,5 mmol, 7 days, 25°C, percent of control) is given as “deutliche Verminderung der primären Wurzel”. Moreover, in data set [3] (cress, 0,5 mmol, 7 days, 25°C, percent of control), the “TG: Rate der Keimung” value is recorded as “leichte Verminderung der Keimung”. The “mittlerer Befallindex (ima)” value in the data set on M. javanica was 3. In [1], the LC50 was 33 µM and 6.86 µg/mL; the EC100 was < 50 µM and < 10.4 µg/mL. In addition, the IC50 in [4] (Globodera pallida, 360 h, 15 days exposure, 10 mmol ZnSO4 as hatching inducer, hatching reduced to half of control, read-out: Bildung von Einschlußkörpern hemmende Dosis 50 (DIE50)) is 7 µM. Further, the activity at 10 µM in [4] (Globodera pallida, after removal of the compound at day 15) worked out at 4.6%. Moreover, in data set [4] (Globodera pallida, first 15 days), the activity at 10 µM was determined as 37.3%. Further, the “Bildung von Einschlußkörpern” value in [4] (concentrations of 0,03 mmol and more, 15 days) was “hörte die Bildung von Einschlußkörpern völlig auf”. For the same compound, the “Reversibility of the hatching-inhibiting effect” value in [4] (dose above 0,03 mmol, cysts washed and placed in 10 mmol ZnSO4 only) is listed as “unumkehrbar”. In addition, the “Wachstum und allgemeiner Aspekt der Pflanzen” value in data set [5] was “keine Unterschiede im Wachstum oder im allgemeinen Aspekt”. Besides, in the data set on Meloidogyne javanica, the Näherungsweiseeffektivität is on record as approximately 75% and the “lebende Larven der M. javanica” value was determined as 25%. For the same compound, in [6] (TE: Rate der Verlängerung), the activity at 168 h, 50 µM amounted to 105% and the activity at 168 h, 500 µM was 89.2%. Further, in data set [6] (TG: Rate der Keimung), the activity at 168 h, 50 µM worked out at 103% and the activity at 168 h, 500 µM came out at 100%. Also, the LC50 at 24 h in [7] was found to be 24.7 µM. In data set [8] (0,05 and 0,5 mmol with irrigation water, after 3 months, greenhouse pots), the “Effekt auf Pflanzen der Bananenpflanzung” value is “keinen Effekt”. For the same compound, in data set [8] (after 6 months, treated banana plants in the greenhouse of Example 1.2), the “Effekt auf Pflanzen der Bananenpflanzung” value was “Ebensowenig stellt man einen Effekt”. In addition, the LD50 at 24 h in [9] was 1490 mg/kg. Besides, the “toxisches Potential pT50” value with Albino-Swiss Maus (estimated from the mouse i.p. data (Luckey and Venugopal)) was 2,14. Further, the “DL0 (letaler Effekt null)” value in the data set on Albino-Swiss Maus (male Albino-Swiss mouse, intraperitoneal, 24 h) is given as 653,85 mg/kg. For the same compound, the DL50 in the data set on Albino-Swiss Maus (male Albino-Swiss mouse, intraperitoneal, 24 h, estimated from regression curve, 1440 min) is 1492*** mg/Kg.

As to `CNC(=O)ON=C(SC)C(=O)N(C)C` [Oxamilo], the DL50 in the data set on Mäusen is reported as 2,3 mg/Kg.

Turning to `CC(=O)C#Cc1ccccc1` [Verbindung 1, 4-Phenyl-3-butin-2-on], in [1], the LC50 was 3.7 µM and 0.53 µg/mL; the EC100 is < 50 µM and < 7.21 µg/mL. In addition, the “toxischer Effekt” value in the data set on Ratte (56 mg/kg intravenous) is listed as “keinen toxischen Effekt”.
